Reference: patent US6979747B2, “Antioxidants, preparation processes and their uses” (Centre National de la Recherche Scientifique (CNRS), priority 1999, dated 2005)

Experiments:
[1] = tested on: GSH; assay: Intracellular GSH in MDMs stimulated with LPS and IFN-γ; format: cell-based, human; settings: MDMs stimulated with LPS (1 μg/ml) and IFN-γ (100 IU/ml)
Description: The intracellular GSH was assayed by means of the assay kit sold by Cayman. This method for assaying glutathione is an adaptation of that described by O. W. Griffith et al. (1980). Tumor necrosis factor (TNF-α), like the oxygen-comprising or nitrogen-comprising radical components, plays a major role in the apoptotic processes associated with infection the HIV. Furthermore, the radical components can promote the synthesis of this proinflammatory cytokine. For this reason, the effects of I-152 in decreasing the synthesis of TNF-α were thus looked for in MDMs stimulated by a bacterial lipopolysaccharide and interferon (IFN-γ).

[2] = tested on: PBMCs
[3] = tested on: GSH; assay: Intracellular concentration of GSH in spleen macrophages; format: cell-based, human
Description: The spleen is dissected and sieved and then the mononuclear cells are isolated using a density gradient, on a Ficoll cushion. The monocytes/macrophages are obtained by adherence to the plastic. The monocytes were allowed to differentiate into macrophages for 7 days, at which time they were infected.
(§1) The intracellular GSH was assayed by means of the assay kit sold by Cayman. This method for assaying glutathione is an adaptation of that described by O. W. Griffith et al. (1980).

[4] = tested on: total glutathione (GSH+GSSG); assay: Total intracellular glutathione in quiescent PBMCs; format: cell-based, human
[5] = tested on: GSH; assay: Intracellular GSH in MDMs infected with HIV-1/Ba-L; format: cell-based, human; settings: MDMs with GSH deficiency after infection with HIV-1/Ba-L
Description: as §1
The compound I-152 and its derivatives are prepared extemporaneously by being dissolved in dimethyl sulfoxide (DMSO) at the concentration of 100 mM. They are subsequently stored at −20° C. after having been diluted 10 fold in phosphate buffer (PBS).

[6] = tested on: HIV-1/Ba-L; assay: Antiviral activity in MDM cultures infected with HIV-1/Ba-L (RT activity in culture supernatants); format: cell-based; settings: for viral replication (in words): treatment of MDMs 7 days after infection
Description: A million monocytes in 1 ml of culture medium A are distributed in each well of a 48 well plate (Becton-Dickinson). The monocytes are left to differentiate into macrophages for 7 days. The macrophages thus differentiated are maintained in culture in medium A.
The MDMs were infected with the reference isolate with macrophage tropism, HIV-1/Ba-L. The PBMCs and the PBLs were infected with the reference isolate with lymphocyte tropism HIV-1 LAI. The viral stock were formed by amplifying these strains in vitro using umbilical blood mononucleated cells (UBM(s) preactivated with 1 μg/ml of PHA-P and cultured in medium A supplemented by 20 IU/ml of IL-2. In order to remove the soluble factors, such as cytokines, the culture supernatants were ultracentrifuged at 360 000 g for 5 min, and the pellets were resuspended in RPMI 1640. The viral stocks thus formed were subsequently titred using PBMCs activated with PHA-P. The TCID50s (50% Tissue Culture Infectious Dose) were calculated using the Kärber formula.
A million MDMs were infected with 10 000 TCID50s of the HIV-1/Ba-L strain. This amount of virus corresponds to a multiplicity of infection (m.o.i.) equal to 0.01. The excess of virus is removed 24 h after by washing with cells using RPMI 1640. The PBLs and the PBMCs were infected with 10 000 TCID50s of the HIV-1 LAI strain (moi=0.01). The cells were washed at the end of the second day of infection.
The viral replication is measured by assaying the RT activity in the culture supernatants according to the technique described by F. Rey et al. (Biochem. Biophys. Res. Comm., 1984, 121, 126-133). The radioactivity incorporated during the extension of the complementary strand of a poly-rA synthetic matrix in the presence of an oligo-dT12-18 primer and of a radiolabeled substrate, [^3H-methyl]thymidine-5′-triphosphate ([^3H]TPP), makes it possible to assay the enzymatic activity of RT. 400 μl of supernatant are ultracentrifuged at 360 000 g for 5 min. The RT is released by lysis of the viral pellet in 20 μl of NTE-Triton (100 mM NaCl, 10 mM Tris, 1 mM EDTA, 0.1% Triton X-100). These 20 μl are subsequently incubated with 40 μl of the following reaction mixture: 62.5 mM Tris, pH 7.8; 25 mM KCl; 6.25 mM MgCl2; 1.25 mM dithiothreitol (DTT); 2.5×10^−3 ODU oligo-dT12-18 and poly-rA, 5.55×10^−3 TBq {^3H]TTP. After one hour at 37° C., the enzymatic reaction is halted and the newly synthesized strands are precipitated for 20 min at 4° C. by the addition of 1 ml of sodium pyrophosphate (NaPP), of 50 μl of yeast DNA (0.1 mg/ml in 5% trichluoroacetic acid (TCA)), and of 4 ml of 20% TCA. The mixture is filtered using a cellulose acetate membrane (Millipore) which retains the radiolabeled poly-dT chains. The filter is washed using 20 ml of 5% TCA and the residual water is removed by addition of 25 μl of 70% ethanol. The filter is dried in an oven for 10 minutes at 80° C. and is then introduced into vials containing 8 ml of liquid scintillant. The β radioactivity is quantified by means of a scintillation counter (Packard Bell). The results are expressed in pM of [^3H]-TMP incorporated/h/ml of supernatant or, more simply, in cpm/h/ml.
The 50% effective doses (ED50) are calculated from the cumulative RT activities using the software “Dose-effects analysis with microcomputers” developed by J. Chou & T. C. Chou.

[7] = tested on: PBLs
[8] = ratio of inhibiting concentrations, MDMs, HIV-1/Ba-L

CC(=O)N[C@@H](CS)C(=O)NCCSC(C)=O [I-152, N-(N-acetyl-L-cysteinyl)-S-acetylcysteamine] was tested, and the “concentration of GSH (in words)” value [1] was “increases the concentration of GSH”, the “cytotoxicity (in words)” value [2] was “not cytotoxic” and the “concentration from which the GSH increase is saturated” value [3] was ≥ 250 µM. The “intracellular level of GSH (in words)” value [3] was “increases the intracellular level of GSH”, the “times more active than NAC” value ([4]; from concentrations supplementing the culture medium giving equivalent glutathione) was 120 times and the “intracellular glutathione at high concentration (in words)” value ([4]; quiescent PBMCs, 250 μM) was “decrease”. The “effect on intracellular level of glutathione (in words)” value ([4]; quiescent PBMCs, 24 h treatment) was “increases the intracellular level of glutathione”, the “intracellular concentration of total glutathione” value ([4]; quiescent PBMCs, dose 125 μM) was 2.64 ± 0.13 µM and the “regeneration of intracellular GSH level (in words)” value [5] was “capable of regenerating an abnormally low intracellular level”. For the same compound, the EC50 ([6]; Human immunodeficiency virus 1, BAL, MDMs infected with 10 000 TCID50s HIV-1/Ba-L (m.o.i. 0.01), read-out: inhibiting concentration (50% effective dose)) was 50 µM, the “antiviral activity (in words)” value ([6]; MDMs infected with HIV-1/Ba-L, compounds dissolved in medium A) was “strong antiviral activity superior to that of NAC or of MEA” and the “times more effective than MEA” value [6, 8] was 6 times. For the same compound, the “times more effective than NAC” value [6, 8] was 188 times, the “antiviral activity (in words)” value ([6]; second series, compounds dissolved in DMSO then diluted, MDMs, HIV-1/Ba-L) was “the most effective in inhibiting viral replication” and the “viral replication (in words)” value ([6]; 250 μM) was “ineffective”. For the same compound, the “viral replication (in words)” value ([6]; 500 μM) was “viral replication is extinguished” and the “cytotoxicity (in words)” value [7] was “not cytotoxic”.
